Test results taken from PMC9290910, “Neuropilin‐1 is required for endothelial cell adhesion to soluble vascular endothelial growth factor receptor 1” (The Febs Journal, 2021).
Where no end group is shown, it is not given here.

Key:
[1] = system: EC (HUVEC) adhesion to peptide 12; details: cited from earlier work
Excerpt: (§1) To dissect whether interaction of NRP‐1 with the transmembrane or the soluble isoform of VEGFR‐1 was required for EC adhesion to sVEGFR‐1, we performed EC adhesion assays by substituting sVEGFR‐1 with a different adhesion substrate, named peptide 12.

angiogenesis = details: cited from earlier work
Excerpt: as §1

[2] = system: EC (HUVEC) adhesion to peptide 12; assay: Cell adhesion assay, EC adhesion to peptide 12; format: cell-based, human; details: plates coated with 500 µg·mL^−1 peptide 12
Method: Human umbilical vein endothelial cells (HUVEC) were isolated from freshly delivered umbilical cords, as previously described, cultured in Endothelial Cell Growth Medium‐2 Kit from Clonetics (EGM‐2, CC4176, Lonza, Basel, Switzerland), and used up to passage 6. For functional assays, HUVEC were resuspended in Endothelial Basal Medium‐2 (EBM‐2, CC3156, Lonza). A pool of cells derived from four different individuals was used.
Solid support for adhesion assay was prepared by incubating immunological 96‐multiwell plates with 20 µg·mL^−1 VEGFR‐1/Fc chimera, or fibronectin solubilized in PBS. After 2 h, the coating solution was removed, and the well surface was blocked with 3% BSA in PBS for 18 h, before plating ECs in serum‐free medium at 3 × 10^4 cells per well. After incubation at 37 °C for 1 h, the wells were washed with PBS and attached cells were fixed with 3% formaldehyde and stained with 0.5% crystal violet. Attachment efficiency was determined by quantitative dye extraction and spectrophotometric measurement of the absorbance at 540 nm, using a Microplate reader 3550‐UV (Bio‐Rad). In competition experiments, peptides Flt2‐11, scrambled Flt2‐11, Flt2‐8 or Flt2‐5, at 20 µg·mL^−1, were added during the adhesion assay. Adhesion to peptide 12 was carried out by using maleic anhydride activated microplates (Reacti‐Bind, Pierce, Rockford, IL, USA) coated with 500 µg·mL^−1 of the peptide.

[3] = system: α5β1 integrin signalling in ECs; assay: Signalling activated by EC adhesion; format: cell-based; details: myristoylated alanine‐rich C‐kinase substrate up-regulation, Rac1 activation; data not shown
α5β1 integrin = system: α5β1 integrin; set-up: method as in 2 sources, one per row (each row's own in cited_ref): ref 34, 36 = [34]; PMID 18184864; doi:10.1182/blood-2007-03-077537; 34 Soro S , Orecchia A , Morbidelli L , Lacal PM , Morea V , Ballmer‐Hofer K , Ruffini F , Ziche M , D'Atri S , Zambruno G et al . ( 2008 ) A proangiogenic peptide derived from vascular endothelial gr || [36]; PMID 18682321; doi:10.1016/j.ejca.2008.06.032; 36 Lacal PM , Morea V , Ruffini F , Orecchia A , Dorio AS , Failla CM , Soro S , Tentori L , Zambruno G , Graziani G et al . ( 2008 ) Inhibition of endothelial cell migration and angiogenesis by a vas ||| ref 34 = [34]; PMID 18184864; doi:10.1182/blood-2007-03-077537; 34 Soro S , Orecchia A , Morbidelli L , Lacal PM , Morea V , Ballmer‐Hofer K , Ruffini F , Ziche M , D'Atri S , Zambruno G et al . ( 2008 ) A proangiogenic peptide derived from vascular endothelial gr; details: cited from earlier work
[4] = system: α5β1 integrin signalling in ECs; set-up: method as in PMID 24174428; details: phosphorylation of focal adhesion kinase or Shc; cited from earlier work
NRP‐1 = assay: SPR, VEGFR‐1 binding to immobilized NRP‐1; set-up: species or system human; details: NRP‐1 immobilized, VEGFR‐1 0.6-5 nM, 1:1 Langmuir model
Method: Fig. 2 Flt2‐11 peptide inhibits NRP‐1 binding to VEGFR‐1. SPR analysis of the interaction between VEGFR‐1 and NRP‐1 in peptide absence (A), or presence of Flt2‐11 peptide (B) or scrambled Flt2‐11 peptide (C). NRP‐1 is immobilized on the sensor chip. (A) VEGFR‐1 is injected at different concentrations (from bottom to top: 0.6 nM, cyan; 1 nM, red; 2 nM, green; 2.5 nM, blue; and 5 nM, black). […] (B) VEGFR‐1 is injected at 5 nM together with peptide Flt2‐11 at different concentrations (from top to bottom: 0, black; 5 nM, blue; 15 nM, green; 45 nM, red; 100 nM, cyan; and 800 nM, magenta). […] (C) VEGFR‐1 is injected at 5 nM together with ‘scrambled’ Flt2‐11 peptide at different concentrations (from top to bottom: 0, black; 0.5 μM, blue; 950 μM, geen; and […], red).
SPR experiments were carried out using a BIACORE X system (Biacore AB, Uppsala, Sweden). […] The reaction was carried out in 20 mM sodium acetate at pH 5.0, which is about 2 points below the theoretical NRP‐1 isoelectric point calculated using the program pI‐tool. […]
RU express the mass concentration‐dependent changes in the observed SPR signal, that is, the refractive index on the sensor chip surface. Changes in this signal are determined by the interaction between the immobilized protein (i.e., either NRP‐1 or VEGFR‐1) with the analyte protein (i.e., VEGFR‐1/Fc, α5β1 integrin or semaphorin 3A). […]

Molecule | support of EC adhesion by peptide 12 [1] | pro‐angiogenic stimulus (angiogenesis) | EC adhesion to peptide 12 in the absence of NRP‐1 [2] | signalling pathway activation by EC adhesion to peptide 12 [3] | binding to α5β1 integrin (α5β1 integrin) | activation of canonical α5β1 integrin signalling by EC adhesion to sVEGFR‐1 [4] | k off (NRP‐1) [s⁻¹] | k on (NRP‐1) [M⁻¹ s⁻¹]
peptide 12: seven amino acid‐long peptide that maps on the second VEGFR‐1 Ig‐like domain (residues 219–225) (NYLTHRQ; also: biotin, position not given here) | support EC adhesion | pro‐angiogenic stimulus | ECs adhere to peptide 12 in the absence of NRP‐1 | also activated | able to directly bind α5β1 integrin | – | – | –
VEGFR‐1: Recombinant human VEGFR‐1/Fc (321‐FL‐050), R&D Systems (protein, left off: Fc, end not stated, kept, Recombinant human VEGFR‐1/Fc (321‐FL‐050), R&D Systems) SKLKDPELSLKGTQHIMQAGQTLHLQCRGEAAHKWSLPEMVSKESERLSITKSACGRNGKQFCSTLTLNTAQANHTGFYSCKYLAVPTSKKKETESAIYIFISDTGRPFVEMYSEIPEIIHMTEGRELVIPCRVTSPNITVTLKKFPLDTLIPDGKRIIWDSRKGFIISNATYKEIGLLTCEATVNGHLYKTNYLTHRQTNTIIDVQISTPRPVKLLRGHTLVLNCTATTPLNTRVQMTWSYPDEKNKRASVRRRIDQSNSHANIFYSVLTIDKMQNKDKGLYTCRVRSGPSFKSVNTSVHIYDKAFITVKHRKQQVLETVAGKRSYRLSMKVKAFPSPEVVWLKDGLPATEKSARYLTRGYSLIIKDVTEEDAGNYTILLSIKQSNVFKNLTATLIVNVKPQIYEKAVSSFPDPALYPLGSRQILTCTAYGIPQPTIKWFWHPCNHNHSEARCDFCSNNEESFILDADSNMGNRIESITQRMAIIEGKNKMASTLVVADSRISGIYICIASNKVGTVGRNISFYITDVPNGFHVNLEKMPTEGEDLKLSCTVNKFLYRDVTWILLRTVNNRTMHYSISKQKMAITKEHSITLNLTIMNVSLQDSGTYACRARNVYTGEEILQKKEITIRDQEAPYLLRNLSDHTVAISSSTTLDCHANGVPEPQITWFKNNHKIQQEPGIILGPGSSTLFIERVTEEDEGVYHCKATNQKGSVESSAYLTVQGTSDKSNLE | – | – | – | – | – | does not activate canonical α5β1 integrin signalling | 0.0003 | 12000
